According to US20090036540A1, “Guanylhydrazones in Methods of Treatment or Diagnosis as Modulators of Signal Transduction” (Cytokine PharmaSciences, Inc., priority 2003, published 2009):

What was measured:
[1] = tested on: Peripheral Blood Mononuclear Cells; assay: PepChip kinome array: in vitro phosphorylation of peptide array by lysates of LPS-stimulated PBMCs; type: cell-based, human
Experimental: Peripheral Blood Mononuclear Cells (PBMCs) were isolated from peripheral blood from healthy volunteers using standard density-gradient centrifugation over Ficoll-Paque Plus (Amersham Pharmacia Biotech AB, Uppsala, Sweden) after washing in resuspension in IMDM supplemented with 10% FBS, penicillin, streptomycin and amphotericin (hereafter referred to as complete IMDM).
For kinome array samples, 10^7 PBMCs were suspended in 5 ml media (IMDM supplemented with 1.0% human serum). LPS stimulation consisted of a […] (37° C., 5% CO2) with 100 ng/ml LPS (E. coli, serotype 0111:B4). CNI treated PBMCs were maintained in media dosed with 1.0 μM CNI-1493 (Cytokine PharmaSciences, Inc.) 1 hour before and during incubation for LPS stimulation. Stimulations were terminated by an ice-cold PBS wash. PBMCs were lysed in 200 μl cell lysis buffer (20 mM Tris-HCl (pH 7.5), 150 mM NaCl, 1 mM Na2EDTA, 1 mM EGTA, 1% Triton, 2.5 mM sodium pyrophosphate, 1 mM MgCl2, 1 mM beta-glycerophosphate, 1 mM Na3VO4, 1 mM NaF, 1 μg/ml leupeptin, 1 μg/ml aprotinin, 1 mM PMSF) and the volume of the cell lysate were equalised with dH2O. The cell lysates were subsequently cleared on a 0.22 μm filter. PepChip incubation mix was produced by adding 10 μl of filter-cleared activation mix (50% glycerol, 50 μM ATP, 0.05% v/v Brij-35, 0.25 mg/ml BSA, ^33P-γ-ATP (1000 kBq)). Next, the PepChip mix is added onto the chip and the chip is kept at 37° C. in a humidified stove for 90 minutes. Subsequently, the PepChip was washed once with TBST, twice in 2M NaCl and twice in demineralised H2O and air-dry the PepChip slips. The experiments were performed three times in duplicate. The average inter-experimental variance in relative values was less than 5% for all spots.
The chips were exposed to a phosphoimager plate for 72 hours and the spots were analysed on AIDA analysing software. For graphical visualisation of the spots in FIG. 2 the data of four arrays was averaged to eliminate false positives.

[2] = tested on: Raf kinase; assay: Raf in vitro kinase assay (pMek immunoblot); type: biochemical; conditions: active Raf kinase, 1 μM Semapimod for 5 and 10 minutes
Experimental: A commercially available in vitro kinase kit (Upstate, cat#: 17-360) was used to study the direct effect of Semapimod on Raf kinase activity. […] Furthermore, active Raf together with Mek, without Semapimod, served as a positive control. Active Raf without the Mek-substrate, left untreated, served as a negative control. The in vitro kinase reaction was performed at 30 C.° for 20 minutes. Sample buffer was added to terminate the reaction, and loaded on […] SDS-PAGE. The immunoblot was analyzed for pMek expression.
Pan-Raf protein expression was analyzed to test for equal loading. Two experiments were performed and similar results were obtained.

[3] = steroid- and infliximab-resistant Crohn's disease; cited from earlier work
[4] = lysates of Semapimod-treated, lipopolysaccharide-stimulated PBMCs

C/C(=N\NC(=N)N)c1cc(NC(=O)CCCCCCCCC(=O)Nc2cc(/C(C)=N/NC(=N)N)cc(/C(C)=N/NC(=N)N)c2)cc(/C(C)=N/NC(=N)N)c1 [Semapimod]
LPS + CNI: peptide phosphorylation, Kinase Lck/Fyn, Substrate MHC-I ([1]; PBMC lysate, 1.0 μM CNI-1493, 100 ng/ml LPS, Control 7040, LPS 1370): 230 | LPS + CNI: peptide phosphorylation, Kinase not given, Substrate GS ([1]; PBMC lysate, 1.0 μM CNI-1493, 100 ng/ml LPS, Control 9758, LPS 17052): 24415 | LPS + CNI: peptide phosphorylation, Kinase p38, Substrate MAPKAP2 ([1]; PBMC lysate, 1.0 μM CNI-1493, 100 ng/ml LPS, Control 10168, LPS 21440): 1150 | LPS + CNI: peptide phosphorylation, Kinase PKC, Substrate c-Src ([1]; PBMC lysate, 1.0 μM CNI-1493, 100 ng/ml LPS, Control 10728, LPS 10416): 17000 | LPS + CNI: peptide phosphorylation, Kinase PKC, Substrate c-RAF ([1]; PBMC lysate, 1.0 μM CNI-1493, 100 ng/ml LPS, Control 10764, LPS 13640): 9522 | LPS + CNI: peptide phosphorylation, Kinase not given, Substrate Tau ([1]; PBMC lysate, 1.0 μM CNI-1493, 100 ng/ml LPS, Control 15846, LPS 10500): 27753 | LPS + CNI: peptide phosphorylation, Kinase v-Fps, Substrate Caldesmon ([1]; PBMC lysate, 1.0 μM CNI-1493, 100 ng/ml LPS, Control 16002, LPS 22800): 31584 | LPS + CNI: peptide phosphorylation, Kinase and Substrate not given ([1]; PBMC lysate, 1.0 μM CNI-1493, 100 ng/ml LPS, Control 16320, LPS 822): 300 | LPS + CNI: peptide phosphorylation, Kinase not given, Substrate GS ([1]; PBMC lysate, 1.0 μM CNI-1493, 100 ng/ml LPS, Control 16920, LPS 19500): 23664 | LPS + CNI: peptide phosphorylation, Kinase CKII, Substrate GS ([1]; PBMC lysate, 1.0 μM CNI-1493, 100 ng/ml LPS, Control 17680, LPS 5350): 13120 | LPS + CNI: peptide phosphorylation, Kinase Lck, Substrate Tec ([1]; PBMC lysate, 1.0 μM CNI-1493, 100 ng/ml LPS, Control 18096, LPS 13824): 300 | LPS + CNI: peptide phosphorylation, Kinase PKC, Substrate Trop ([1]; PBMC lysate, 1.0 μM CNI-1493, 100 ng/ml LPS, Control 18786, LPS 23230): 40000 | LPS + CNI: peptide phosphorylation, Kinase not given, Substrate GS ([1]; PBMC lysate, 1.0 μM CNI-1493, 100 ng/ml LPS, Control 20736, LPS 20592): 26477 | LPS + CNI: peptide phosphorylation, Kinase p34cdc2, Substrate Lamin B1 ([1]; PBMC lysate, 1.0 μM CNI-1493, 100 ng/ml LPS, Control 21000, LPS 11165): 300 | LPS + CNI: peptide phosphorylation, Kinase not given, Substrate EIF4F ([1]; PBMC lysate, 1.0 μM CNI-1493, 100 ng/ml LPS, Control 21000, LPS 25200): 24624 | LPS + CNI: peptide phosphorylation, Kinase PKC, Substrate BICKS ([1]; PBMC lysate, 1.0 μM CNI-1493, 100 ng/ml LPS, Control 23400, LPS 38086): 15980 | LPS + CNI: peptide phosphorylation, Kinase PKC, Substrate MARCKS ([1]; PBMC lysate, 1.0 μM CNI-1493, 100 ng/ml LPS, Control 23714, LPS 16401): 13426 | LPS + CNI: peptide phosphorylation, Kinase not given, Substrate MBP ([1]; PBMC lysate, 1.0 μM CNI-1493, 100 ng/ml LPS, Control 26208, LPS 36442): 51888 | LPS + CNI: peptide phosphorylation, Kinase not given, Substrate Vimentin ([1]; PBMC lysate, 1.0 μM CNI-1493, 100 ng/ml LPS, Control 26240, LPS 30889): 59840 | LPS + CNI: peptide phosphorylation, Kinase not given, Substrate MBP ([1]; PBMC lysate, 1.0 μM CNI-1493, 100 ng/ml LPS, Control 26481, LPS 23852): 51414 | LPS + CNI: peptide phosphorylation, Kinase p42/44, Substrate MBP ([1]; PBMC lysate, 1.0 μM CNI-1493, 100 ng/ml LPS, Control 28710, LPS 536): 23296 | LPS + CNI: peptide phosphorylation, Kinase not given, Substrate GS ([1]; PBMC lysate, 1.0 μM CNI-1493, 100 ng/ml LPS, Control 31500, LPS 31050): 51102 | LPS + CNI: peptide phosphorylation, Kinase p42/44, Substrate MBP ([1]; PBMC lysate, 1.0 μM CNI-1493, 100 ng/ml LPS, Control 33814, LPS 14514): 26352 | LPS + CNI: peptide phosphorylation, Kinase PKA, Substrate MARCKS ([1]; PBMC lysate, 1.0 μM CNI-1493, 100 ng/ml LPS, Control 34295, LPS 31647): 62514 | LPS + CNI: peptide phosphorylation, Kinase not given, Substrate c-Src ([1]; PBMC lysate, 1.0 μM CNI-1493, 100 ng/ml LPS, Control 34410, LPS 2470): 319 | LPS + CNI: peptide phosphorylation, Kinase not given, Substrate Vimentin ([1]; PBMC lysate, 1.0 μM CNI-1493, 100 ng/ml LPS, Control 37760, LPS 18020): 44200 | LPS + CNI: peptide phosphorylation, Kinase not given, Substrate MBP ([1]; PBMC lysate, 1.0 μM CNI-1493, 100 ng/ml LPS, Control 38634, LPS 36464): 38354 | LPS + CNI: peptide phosphorylation, Kinase not given, Substrate MBP ([1]; PBMC lysate, 1.0 μM CNI-1493, 100 ng/ml LPS, Control 40793, LPS 36600): 55572 | LPS + CNI: peptide phosphorylation, Kinase PKC, Substrate MBP ([1]; PBMC lysate, 1.0 μM CNI-1493, 100 ng/ml LPS, Control 47940, LPS 18624): 15680 | LPS + CNI: peptide phosphorylation, Kinase not given, Substrate MLC-2 ([1]; PBMC lysate, 1.0 μM CNI-1493, 100 ng/ml LPS, Control 48400, LPS 53482): 33674 | LPS + CNI: peptide phosphorylation, Kinase not given, Substrate MBP ([1]; PBMC lysate, 1.0 μM CNI-1493, 100 ng/ml LPS, Control 60630, LPS 62900): 65076 | LPS + CNI: peptide phosphorylation, Kinase PKA, p42/44, Substrate CgA ([1]; PBMC lysate, 1.0 μM CNI-1493, 100 ng/ml LPS, Control 62088, LPS 548): 6700 | capacity to phosphorylate peptides representing consensus sequences for MAP kinase family members [1, 4]: strongly impaired | phosphorylation of a peptide representing a consensus phosphorylation site for MEK kinase [1, 4]: inhibited | phosphorylation of a peptide representing the PKC consensus phosphorylation site in c-Raf [1, 4]: not impaired | Raf kinase activity [2]: inhibited | pMek1/2 expression in in vitro kinase assay ([2]; inactive Mek-substrate): reduced pMek1/2 expression | clinical effect in Crohn's disease [3]: induces clinical remission and endoscopal healing
